Test results reported in US20220031901A1, “FRAGRANCE COMPOSITION” (Takasago International Corporation, priority 2020, published 2022).

Legend:
olfactory receptor OR2L3 [1] = target: T1, olfactory receptor OR2L3 (Homo sapiens, UniProt Q8NG85); assay: Effect of suppressing the response of OR2L3 to unpleasant odor (luciferase reporter gene assay); type: cell-based; details: for Effect of suppressing the response of OR2L3 to indole: test substance mixed with indole, FIGS. 9 to 11; for Effect of suppressing the response of OR2L3 to skatole: test substance mixed with skatole, ratio of Fold Increase value, FIGS. 6 to 8
T1 construct: N-terminal 20 amino acid residues of bovine rhodopsin (Rho tag); expressed in transfected cells; host or cells: HEK293T
T1 sequence (Q8NG85 1-312): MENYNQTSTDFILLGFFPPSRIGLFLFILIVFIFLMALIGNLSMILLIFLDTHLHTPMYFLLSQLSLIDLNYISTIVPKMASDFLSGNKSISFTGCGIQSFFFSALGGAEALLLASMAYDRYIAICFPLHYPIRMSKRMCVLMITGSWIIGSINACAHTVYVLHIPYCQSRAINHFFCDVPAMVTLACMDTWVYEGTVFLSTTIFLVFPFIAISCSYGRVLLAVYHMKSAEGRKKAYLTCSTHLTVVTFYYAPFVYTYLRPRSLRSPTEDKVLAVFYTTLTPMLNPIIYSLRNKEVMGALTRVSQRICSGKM
Procedure: (§1) A human olfactory receptor gene was obtained by cloning according to the PCR method using Human Genomic DNA: Female (Promega) based on the sequence information registered in GenBank. The N-terminal 20 amino acid residues of bovine rhodopsin were incorporated into a pME18S vector, and the obtained human olfactory receptor gene was further incorporated downstream thereof, thereby obtaining a human olfactory receptor gene expression vector.
(§2) 0.05 μg of the human olfactory receptor gene expression vector, 0.01 μg of an RTP1S vector, 0.01 μg of a firefly luciferase vector pGL4.29 containing a cAMP-responsive sequence promoter (Promega), and 0.005 μg of a Renilla luciferase vector pGL4.74 containing a thymidine kinase promoter (Promega) were dissolved in 10 μL of Opti-MEM I (gibco) to obtain a gene solution (for one well). 100 μL of HEK293T cells were seeded in each well of a 96-well plate (Biocoat manufactured by Corning) so as to reach confluency after 24 hours. According to the directions for use of Lipofectamine 3000, by the lipofection method, the gene solution was added to each well to perform gene transfer to cells, and culturing was performed under 5% carbon dioxide atmosphere at 37° C. for 24 hours.
(§3) After removing the culture medium, 50 μL of CD293 medium (gibco) (20 μM L-glutamine added) including measured concentration of an aroma compound as a sample was added to each well, and stimulation was performed for 3 hours. After that, the luciferase activity was measured according to the directions for use of Dual-Luciferase Reporter Assay System (Promega). The response strength of the olfactory receptor was expressed by the Fold Increase value, which is obtained by dividing the luciferase activity generated by stimulation of the aroma compound by the luciferase activity generated in the test system not including the aroma compound.
With respect to Group A, the effect of suppressing the response of OR2L3 that strongly responded to unpleasant odors was measured by means of luciferase reporter gene assay. In luciferase reporter gene assay, skatole and Guava coeur (registered trademark) were used by being mixed with a sample. The Fold Increase value in the test in which Guava coeur was not mixed was regarded as 1, and the ratio of the Fold Increase value in the test in which Guava coeur was mixed was obtained.
Guava coeur in the evaluation of the effect of suppressing the response of OR2L3 was replaced by Dextramber (registered trademark), and the test was conducted in the same manner. […] Similarly, Guava coeur was replaced by Hindinol (registered trademark) and the test was conducted.
Regarding the unpleasant odor in the evaluation of the effect of suppressing the response of OR2L3, skatole was replaced by indole, and the test was conducted in the same manner.
In the evaluation of the effect of suppressing the response of OR2L3, the test was further conducted using combinations in which Guava coeur was replaced by another material of Group A and the skatole as the unpleasant odor was replaced by α-terpineol, 4-terpineol or p-methylacetophenone.

[2] = Sensory evaluation of unpleasant odor suppression ability of Group A; design: species or system human; details: for Indole strength / Skatole strength: average of 20 panelists, scale 0 (not smelled) to 10 (very strongly), unpleasant odor alone = 8, 1 hour; for Indole strength: 10 μL indole diluted 100-fold + 1 μL test substance; for Skatole strength: 10 μL skatole diluted 100-fold + 1 μL test substance; for Effect of suppressing the unpleasant odors (skatole, indole): sensory evaluation, result in words
Procedure: The unpleasant odor suppression ability of test substances having activity to inhibit receptor action was confirmed by sensory evaluation. A cotton ball on which 10 μL of skatole or indole diluted 100-fold with triethyl citrate as an unpleasant odor and 1 μL of a test substance were dropped was put into a plastic bottle (OZO-40 manufactured by Takemoto Yohki Co., Ltd.). The bottle was allowed to stand at room temperature for 1 hour to sufficiently volatilize odor molecules therein. The sensory evaluation test was conducted by a panel consisting of 20 persons, who made evaluation as follows: the odor strength in the case where the unpleasant odor was dropped solely was rated as 8, and the unpleasant odor strength in the case where the test substance was mixed was rated as from 0 (the unpleasant odor is not smelled) to 10 (the unpleasant odor is smelled very strongly). The average value was calculated from obtained numerical values.

[3] = Sensory evaluation of ability to suppress model fecal odor by fragrance compositions; design: species or system human; details: substance blended in the fragrance composition (floral-fruity base); result in words
Procedure: Fragrance compositions of Fragrance 1 to Fragrance 41 were prepared according to the formulations in Tables 2-6 below. DPG in the tables means dipropylene glycol. […] Note that the way of dividing the group and the ratio in the group are optional and not limited by Table 7. The floral-fruity base in Tables 2-6 was prepared according to Table 8.
Regarding these fragrance compositions, the ability to suppress the unpleasant odor was confirmed by means of sensory evaluation. As the unpleasant odor, a model fecal odor containing skatole, indole, butyric acid, p-cresol and dimethyl trisulfide (Lin et al., Environ. Sci. Technol., 2013, 47(14), pp. 7876-7882) was diluted 100-fold, and 10 μL thereof was dropped on a cotton ball, and as a test substance, 1 μL of one of Fragrance 1 to Fragrance 41 was dropped on the cotton ball. Then the cotton ball was put into a plastic bottle (OZO-40 manufactured by Takemoto Yohki Co., Ltd.). The bottle was allowed to stand at room temperature for 1 hour to sufficiently volatilize odor molecules therein. The sensory evaluation test was conducted by a panel consisting of 20 persons, who made evaluation as follows: the unpleasantness in the case where the unpleasant odor was dropped solely was rated as −3, and the unpleasantness in the case where the test substance was mixed was rated as from −4 (extremely unpleasant) to +4 (extremely pleasant). The average value was calculated from obtained numerical values.

olfactory receptor OR2L3 [4] = target: T1, olfactory receptor OR2L3; assay: Response of olfactory receptor OR2L3 to unpleasant odor-causing substance (luciferase reporter gene assay); type: cell-based; details: various concentrations, stimulation 3 hours, HEK293T cells expressing OR2L3; FIGS. 1 to 5
Procedure: as §1, §2, §3
Responses of the olfactory receptor OR2L3 to skatole, indole, α-terpineol, 4-terpineol or p-methylacetophenone as a typical example of the unpleasant odor-causing substance were measured with various concentrations by means of luciferase reporter gene assay. […] Meanwhile, in the Mock test (using cells in which OR2L3 was not expressed), no response was shown. That is, it was shown that OR2L3 specifically responds to the respective unpleasant odor-causing substances.

Row | Compound | Effect of suppressing the response of OR2L3 to indole (olfactory receptor OR2L3 [1]) | Effect of suppressing the response of OR2L3 to skatole (olfactory receptor OR2L3 [1]) | Indole strength [2] | Skatole strength [2] | Effect of suppressing the unpleasant odors (skatole, indole) [2] | Suppression of the unpleasantness of the model fecal odor [3] | Response of the olfactory receptor OR2L3 (Fold Increase value) (olfactory receptor OR2L3 [4])
1 | CC(=CCC1CC=C(C)C1(C)C)CO (stereo not shown) [Hindinol, 2-methyl-4-(2,2,3-trimethyl-3-cyclopentenyl)-2-buten-1-ol] | concentration-dependently reducing the response | concentration-dependently reducing the response | 4.1 | 3.6 | suppress the unpleasant odors | suppress the unpleasantness | –
2 | CC(C)(C)C1CCC(O)CC1 (stereo not shown) [4-t-butylcyclohexanol, reference compound] | – | did not suppress | 6.0 | 6.3 | – | – | –
3 | Cc1c[nH]c2ccccc12 [skatole] | – | – | – | – | – | – | concentration-dependent responses
4 | CCOC(=O)C(C)C(C)S (stereo not shown) [Guava coeur, ethyl 3-mercapto-2-methylbutyrate] | concentration-dependently reducing the response | concentration-dependently reducing the response | 3.3 | 3.0 | suppress the unpleasant odors | suppress the unpleasantness | –
5 | CC(c1ccccc1)C1CC1C(C)(C)O (stereo not shown) [Pamplefix, dimethyl-2-(1-phenylethyl)cyclopropylmethanol] | – | – | 2.4 | 2.5 | suppress the unpleasant odors | suppress the unpleasantness | –
6 | O=C1CCCC=CCCCCCCCCCC1 [Ambretone, 5-cyclohexadecenone] | – | – | 3.6 | 4.2 | suppress the unpleasant odors | suppress the unpleasantness | –
7 | CC1CCC(C(C)(C)S)C(=O)C1 (stereo not shown) [Ringonol, p-mentha-8-thiol-3-one] | – | – | 3.7 | 3.9 | suppress the unpleasant odors | suppress the unpleasantness | –
8 | methyl fenchol [Humus Ether] | – | suppresses | – | – | – | suppressed the unpleasantness | –
9 | c1ccc2[nH]ccc2c1 [indole] | – | – | – | – | – | – | concentration-dependent responses
10 | CC1=CCC(O)(C(C)C)CC1 (stereo not shown) [Fragrance 4-terpineol, 4-terpineol] | – | – | – | – | – | – | concentration-dependent responses
11 | CC1=CCC(C(C)(C)O)CC1 (stereo not drawn) [α-terpineol] | – | – | – | – | – | – | concentration-dependent responses
12 | CC(=O)c1ccc(C)cc1 [p-methylacetophenone] | – | – | – | – | – | – | concentration-dependent responses
13 | CCCC(O)CCC1C(C)CCCC1(C)C (stereo not shown) [Dextramber, 1-(2,2,6-trimethylcyclohexyl)hexan-3-ol] | concentration-dependently reducing the response | concentration-dependently reducing the response | 3.9 | 4.0 | suppress the unpleasant odors | suppress the unpleasantness | –
14 | CCCCCCOC(=O)c1ccccc1O [Hexyl salicylate, hexyl salicylate, reference compound] | – | did not suppress | 6.7 | 6.9 | – | – | –
